{"source": "patent US12150933B2", "about": "“IL-8 inihibitors for use in the treatment of some urological disorders” (DOMPÉ FARMACEUTICI S.P.A., priority 2015, dated 2024)", "key": {"[1]": {"tested_on": "CYP-induced visceral pain", "assay": "Acute administration in CYP-induced visceral pain in rats (Von Frey mechanical threshold)", "format": "in vivo, rat", "description": "Female Sprague Dawley rats (Crl:CD(SD)BR, 250-350 g) from Charles River Italy were used in these experiments. Animals were housed with free access to food and water and maintained on a forced 12 hours light-dark cycle at 22-24° C. for at least one week before the experiments were carried out. The animals were handled according to internationally accepted principles for care of laboratory animals (E.E.C. Council Directive 86/609, […]. 18, 1986). Cyclophosphamide, 75 mg/kg i.p. for 3 times, every 3rd day, was dissolved in distilled water and administered to animals by i.p. route (volume 5 mL/kg). Appropriate weight of Compd. 1 or Compd. 2 was dissolved in saline, all doses of test compounds were administered by oral gavage (volume 2 mL/kg). On the day of the experiment, each rat was placed individually in a clear plastic testing box with a grid floor and allowed to acclimatize for at least 10 min. Visceral sensitivity in response to mechanical stimuli was determined using Von Frey monofilaments (1-2-4-8-15-26-60-100 g) applied in the lower abdominal area (close to the urinary bladder) and on both hind paws plantar surface (to evaluate referred pain). Each Von Frey monofilament was applied 5 times at the level of abdomen and 3 times at the level of each paw, in an ascending order of strength at interval of 5 sec. A stimulus-induced response was considered positive when the paw was sharply withdrawn, paw licking occurred, or the animal flinched upon removal of the filament. Behavioral testing on animals was performed at 3 different times: • before CYP administration (in order to acquire basal values) • after CYP administration, before treatment with the test compound, to verify the pathology (in order to acquire pre-treatment values) • after CYP administration, after treatment (in order to acquire post-treatment values) […] The test was performed in blind. Compd. 1 and Compd. […]"}, "[2]": {"tested_on": "CYP-induced visceral pain", "assay": "Chronic administration in CYP-induced visceral pain in rats (Von Frey withdrawal threshold)", "format": "in vivo, rat", "description": "Cyclophosphamide, 75 mg/kg i.p. for 3 times, every 3rd day, was dissolved in distilled water and administered to animals by i.p. route (volume 5 mL/kg). Appropriate weight of Compd. 1 or Compd. 2 was dissolved in saline, all doses of test compounds were administered by oral gavage (volume 2 mL/kg).\nOn the day of the experiment, each rat was placed individually in a clear plastic testing box with a grid floor and allowed to acclimatize for at least 10 min. Visceral sensitivity in response to mechanical stimuli was determined using Von Frey monofilaments (1-2-4-8-15-26-60-100 g) applied in the lower abdominal area (close to the urinary bladder) and on both hind paws plantar surface (to evaluate referred pain).\nEach Von Frey monofilament was applied 5 times at the level of abdomen and 3 times at the level of each paw, in an ascending order of strength at interval of 5 sec. A stimulus-induced response was considered positive when the paw was sharply withdrawn, paw licking occurred, or the animal flinched upon removal of the filament.\n• before CYP administration (in order to acquire basal values) • after CYP administration and before treatment, to verify the pathology (in order to acquire pre-treatment values) • after chronic treatment, about 18 hours after last administration of Compd. 1 (in order to acquire post-treatment values). • after chronic treatment, 2 hours after the last administration of Compd. 1 (in order to acquire post-treatment values after chronic+acute administration)\nCompd. 1 or vehicle was administered p.o. to animals twice daily (according to the pharmacokinetic profile of the compound) for 6 days, starting from 24 hours after last treatment with CYP, when painful symptoms were well established. Nociceptive hypersensitivity was evaluated about 18 hours after the last administration of Compd. 1 (or vehicle) in order to evaluate the effect of chronic administration, or a further dosage of compound was administered and evaluation carried out 2 hours thereafter, in order to compare with acute protocol, described in Example 1."}, "CYP-induced cystitis [3]": {"tested_on": "CYP-induced cystitis", "assay": "Cystometrographic recordings in conscious rats with CYP-induced cystitis", "format": "in vivo, rat", "details": "for bladder volume capacity (BVC): 24 hours after CYP 175 mg/kg i.p.", "description": "Female Sprague Dawley rats (Crl:CD(SD)BR, 250-350 g bw) from Charles River Italy were used in these experiments. Animals were housed with free access to food and water and maintained on a forced 12 hours light-dark cycle at 22-24° C. for at least one week before the experiments were carried out.\nRats, anaesthetized with equithensin solution (2 ml/kg i.p.), were placed in a supine position and an approximately 10 mm midline incision was made in the shaved and cleaned abdominal wall. The urinary bladder was gently freed from adhering tissues, emptied and then cannulated, via an incision at the dome, with a polyethylene cannula (Portex, ID 0.58 mm, OD 0.96 mm), which was permanently sutured with silk thread. The cannula was exteriorized through a subcutaneous tunnel in the retroscapular area, where it was connected with a plastic adapter, in order to avoid the risk of removal by the animal.\nFor drugs testing, rats were utilized one day after catheter implantation at about 24 hours after administrations CYP.\nOn the day of the experiment, the rats (fasted overnight) were placed in Bollman's cages; after a stabilization period of 20 min, the free tip of the cannula was connected by a T-shape tube to a pressure transducer and to a peristaltic pump for a continuous infusion of saline solution (room temperature) into the urinary bladder, at the constant rate of 0.05 ml/min. This procedure, termed cystometry, allows the detection of continuous cycles of filling and voiding of the bladder named cystometrograms.\nFrom the cystometrograms acquired by the Biopac System and recorded on a PC the Bladder Volume Capacity (BVC) parameter was calculated as volume capacity, defined as volume (in ml) infused into the bladder and necessary to induce detrusor contraction followed micturition.\nBasal BVC was evaluated as mean values from the cystometrograms recorded in 30-60 minutes of time prior the treatment (“BASAL”). Then the bladder infusion was stopped, the animals were treated orally with the test compound or vehicle and, after restarting continuous bladder filling with saline for 4 or 5 hours, BVC values after administration were collected.\nBVC parameters were recorded from the cystometrogram over a 4/5 hours period post-dose."}, "[4]": {"tested_on": "CYP-induced urinary bladder cystitis", "assay": "Microscopic examination of urinary bladders after chronic administration (histology, immunohistochemistry)", "format": "in vivo, rat", "excerpt": "At the end of the efficacy study of chronic administration, the urinary bladders were opened, placed in 10% buffered formalin and stored at room temperature until hystomorphological analysis.\nTreatment with Compd. […] The induced lesions consisted of apoptosis, erosions of the mucosa, mitoses of the mucosal cells, mucosal hyperplasia, infiltration of inflammatory cells and micro-hemorrhages. Caspase 3 and caspase 9 expression (markers of apoptosis) as well as Ki67 expression (marker for cell proliferation) were reduced in the group treated with Compd. 1."}, "CYP-induced cystitis [5]": {"tested_on": "CYP-induced cystitis", "assay": "Follow-up up to 10 days after discontinuation of treatment (body weight, survival)", "format": "in vivo"}, "[6]": {"details": "7 mg/kg twice daily p.o. for 6 days, about 18 hours after last administration"}, "[7]": {"details": "immunohistochemistry, versus CYP group"}}, "note": "Values joined by “and” are separate entries in the source; they are usually repeats but may differ in a detail not shown here. Identical values can stand only once. “Also recorded” adds a separate entry of the source.", "data": [{"smiles": "C[C@H](C(=O)O)c1ccc(Nc2nc(C(F)(F)F)cs2)cc1", "note": "[Compd. 1, (2S)-2-(4-{[4-(trifluoromethyl)-1,3-thiazol-2-yl]amino}phenyl) propanoic acid]", "values": [{"measurement": "withdrawal thresholds, abdomen and hind paws", "setting": "[1]; 1 mg/kg p.o., 2 hours after administration, versus pre-treatment", "result": "not significantly different from the pretreatment values"}, {"measurement": "mechanical threshold, abdomen and hind paws", "setting": "[1]; 3 mg/kg p.o., 2 hours after administration, versus pre-treatment", "result": "statistical significant increase of mechanical threshold in both the areas evaluated"}, {"measurement": "mechanical threshold, abdomen and hind paws", "setting": "[1]; 7 mg/kg p.o., 2 hours after administration, versus pre-treatment", "result": "statistical significant reduction of painful hypersensitivity in both the abdominal and plantar surface"}, {"measurement": "mechanical threshold, abdomen and hind paws", "setting": "[1]; 10 mg/kg p.o., 2 hours after administration, versus pre-treatment", "result": "statistically significant increase in mechanical threshold in both the abdomen and paws area; also recorded: statistical significant reduction of painful hypersensitivity in both the abdominal and plantar surface"}, {"measurement": "mechanical threshold, abdomen and hind paws", "setting": "[1]; 30 mg/kg p.o., 2 hours after administration, versus pre-treatment", "result": "statistically significant increase in mechanical threshold in both the abdomen and paws area"}, {"measurement": "MED", "setting": "[1]; p.o., acute administration", "result": 3, "unit": "mg/kg"}, {"measurement": "painful visceral symptoms in both evaluated areas", "setting": "[2]; 7 mg/kg twice daily p.o. for 6 days plus one further dose, 2 hours following the last administration", "result": "fully abolished the painful visceral symptoms in both evaluated areas"}, {"measurement": "nociceptive hypersensitivity in hind-paws plantar surface", "setting": "[2]; [6]", "result": "completely reverses the nociceptive hypersensitivity in hind-paws plantar surface"}, {"measurement": "withdrawal thresholds in the abdomen", "setting": "[2]; [6]", "result": "almost complete recovery of withdrawal thresholds in the abdomen; also recorded: almost complete increase in withdrawal thresholds in the abdomen"}, {"measurement": "bladder volume capacity (BVC)", "setting": "CYP-induced cystitis [3]; 10 mg/kg oral", "result": "did not induce any changes of BVC"}, {"measurement": "bladder volume capacity (BVC)", "setting": "CYP-induced cystitis [3]; 20 mg/kg oral", "result": "moderate increase of BVC statistically different from vehicle and pre-drug treatment at 4 and 5 hours"}, {"measurement": "bladder volume capacity (BVC)", "setting": "CYP-induced cystitis [3]; 30 mg/kg oral", "result": "sustained increase of BVC"}, {"measurement": "increase of BVC", "setting": "CYP-induced cystitis [3]; 30 mg/kg oral, significant at 3 and 4 hours after treatment", "result": "up to +40%"}, {"measurement": "MP", "setting": "CYP-induced cystitis [3]; 20 and 30 mg/kg oral", "result": "inactive on MP"}, {"measurement": "inflammatory, degenerative and proliferative lesions of the urinary bladder", "setting": "[4]; 7 mg/kg oral twice a day for 6 days after CYP", "result": "clearly reduced or reversed the inflammatory, degenerative and proliferative lesions"}, {"measurement": "Incidence: Apoptosis epithelial cell, urinary bladder", "setting": "[4]; animals of 10/group, 7 mg/kg oral twice a day for 6 days after CYP", "result": "3/10 and 3"}, {"measurement": "Caspase 3 and caspase 9 expression (markers of apoptosis)", "setting": "[4]; [7]", "result": "reduced"}, {"measurement": "Ki67 expression (marker for cell proliferation)", "setting": "[4]; [7]", "result": "reduced; also recorded: lower grade of positivity"}, {"measurement": "survival", "setting": "CYP-induced cystitis [5]; vehicle-treated 50%", "result": 65, "unit": "%"}, {"measurement": "body weight recovery", "setting": "CYP-induced cystitis [5]; versus vehicle-treated animals", "result": "body weight recovery faster than vehicle-treated animals"}]}]}
